Experimental data taken from PubChem BioAssay (NCI).
Values joined by “and” are separate entries in the source; they are usually repeats but may differ in a detail not shown here. Equal entries are not always repeated.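 Where inhibition never reached the appropriate level, the endpoint shown equals the highest concentration tested. Otherwise, values were interpolated linearly from a five-concentration, 48-hour dose response in 96-well plates. Abbreviation: GI50, concentration required for 50% inhibition of growth. Definition used: TGI = concentration required for complete inhibition of growth.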

Columns and labels:
Experiment in all cases: growth of human tumour cells (NCI), 48 h
[1] = system: COLO 205 colon
[2] = system: SW-620 colon
[3] = system: KM12 colon
[4] = system: SK-MEL-5 melanoma
[5] = system: T-47D breast
[6] = system: SF-295 CNS
[7] = system: UACC-257 melanoma
[8] = system: SNB-75 CNS
[9] = system: SR leukemia
[10] = system: UO-31 renal

SMILES	TGI [1]	TGI [2]	TGI [3]	TGI [4]	TGI [5]	TGI [6]	TGI [7]	TGI [8]	GI50 [9] [µM]	TGI [9] [µM]	GI50 [10]	TGI [10]	GI50 [1]	GI50 [2] [µM]	GI50 [3]	GI50 [4] [µM]	GI50 [5]	GI50 [6]	GI50 [7]	GI50 [8]
Cc1cc(S(=O)(=O)Nc2n[nH]c(N)n2)c(Cl)cc1Cl	> 10 µM	> 10 µM	> 10 µM	> 10 µM	> 10 µM	> 10 µM	> 10 µM	> 10 µM	–	–	–	–	–	–	–	–	–	–	–	–
COC(=O)[C@H](Cc1cn(C)cn1)NC(=O)[C@H](C)NC(=O)Nc1cc(C(F)(F)F)cc(C(F)(F)F)c1	> 10 µM	> 10 µM	> 10 µM	> 10 µM	> 10 µM	> 10 µM	> 10 µM	> 10 µM	> 10	> 10	> 10 µM	> 10 µM	> 10 µM	> 10	> 10 µM	> 10	7.58 µM	> 10 µM	> 10 µM	> 10 µM
COc1ccc2c(c1)-c1nn(CCCN(C)C)c3ccc([N+](=O)[O-])c(c13)N2	0.913 µM and 3.75 µM	4.69 µM and 3.65 µM	2.54 µM and 2.58 µM	2 µM and 2.92 µM	11.4 µM and 2.27 µM	3.76 µM and 3.07 µM	3.26 µM and 10.9 µM	1.02 µM and 3.85 µM	1.27	–	0.165 µM and 0.435 µM	1.9 µM and 6.16 µM	0.0962 µM and 0.276 µM	0.0633	0.194 µM and 0.43 µM	–	0.668 µM and 0.308 µM	0.175 µM and 0.389 µM	0.455 µM and 1.1 µM	0.197 µM and 0.573 µM
CCC(C)C(=O)OCC(=O)c1ccc(-c2ccccc2)cc1 (stereo unspecified)	> 100 µM	> 100 µM	> 100 µM	72.6 µM	> 100 µM	> 100 µM	87.4 µM	> 100 µM	–	> 100	–	> 100 µM	–	–	–	–	–	–	–	–
CN(CCC(=O)/C(=C\c1ccccc1)c1ccc(Cl)cc1)Cc1ccccc1	7.24 µM	7.74 µM	11 µM	13.1 µM	9.01 µM	7.5 µM	24.2 µM	31.8 µM	0.521	5.81	1.74 µM	3.63 µM	2.75 µM	2.63	3.07 µM	3.44	2.5 µM	2.76 µM	10.7 µM	10.2 µM
NC(Cc1ccc2nc3c4ccccc4c(=O)cc-3oc2c1)C(=O)O (stereo unspecified)	> 100 µM	> 100 µM	> 100 µM	34.6 µM	> 100 µM	> 100 µM	> 100 µM	> 100 µM	–	> 100	–	> 100 µM	–	–	–	–	–	–	–	–
CC(=O)NC1=NC(=O)/C(=C/c2ccc(/C=C3/C(=O)N=C(NC(C)=O)N3C)cc2)N1C	> 100 µM	> 100 µM	> 100 µM	> 100 µM	> 100 µM	> 100 µM	> 100 µM	> 100 µM	–	–	–	> 100 µM	–	–	–	–	–	–	–	–
CCCCCCNCc1cc(C(C)(C)C)cc(CNCCCCCC)c1O	3.07 µM	3.1 µM	3.3 µM	3.01 µM	3.29 µM	3.16 µM	3.13 µM	2.92 µM	1.73	3.86	1.37 µM	2.8 µM	1.67 µM	1.66	1.82 µM	1.65	1.65 µM	1.64 µM	1.67 µM	1.44 µM
CC1OC(CC(=O)O)CC2=C1C(=O)c1c(O)cccc1C2=O (stereo unspecified)	0.169 µM	0.207 µM	3.49 µM	1.15 µM	4.4 µM	2.51 µM	0.228 µM	2.86 µM	–	0.159	–	1.07 µM	–	–	–	–	–	–	–	–
NC(=O)c1sc(-n2cnc3cc(C(F)(F)F)ccc32)cc1OCc1ccccc1Br	> 25 µM	> 25 µM	> 25 µM	> 25 µM	> 25 µM	> 25 µM	> 25 µM	> 18.8 µM	> 21.2	> 25	> 25 µM	> 25 µM	> 25 µM	> 17.9	> 19.9 µM	> 16.5	> 21 µM	> 25 µM	> 25 µM	8.72 µM
O=C(CCCN1CCC(C(O)c2ccc(F)cc2)CC1)c1ccc(F)cc1 (stereo unspecified)	110 µM	123 µM	116 µM	99.3 µM	137 µM	118 µM	121 µM	98.5 µM	–	201	–	79.3 µM	–	–	–	–	–	–	–	–
N#CC(C#N)=C/C=C(\Sc1ccc(F)cc1Cl)c1ccc(Cl)cc1	5.02 µM	3.82 µM	2.79 µM	8.58 µM	5.19 µM	6.79 µM	4.76 µM	31 µM	0.0756	> 100	1.78 µM	> 40.3 µM	0.515 µM	0.387	0.714 µM	2.59	0.659 µM	0.639 µM	1.8 µM	10.3 µM
CCCCOC1OC(COC(=O)C(C)C)C(OC(=O)C(C)C)C(O)C1OC1OC(C)C(OC(=O)CCC)C(OC(=O)C(C)C)C1O (stereo unspecified)	25.8 µM	27.8 µM	29 µM	26.5 µM	35.3 µM	27.5 µM	32.5 µM	31.4 µM	–	–	16.8 µM	32.2 µM	13.1 µM	14.7	15.1 µM	13.6	15 µM	14.4 µM	18.5 µM	17.6 µM
CCN1C(=NCCO)NS(=O)(=O)c2ccccc21	> 100 µM	> 100 µM	> 100 µM	> 100 µM	> 100 µM	> 100 µM	> 100 µM	–	–	> 100	–	> 100 µM	–	–	–	–	–	–	–	–
CCOc1ccc2c(c1)c(CC(=O)O)cn2C	> 100 µM	–	> 100 µM	–	> 100 µM	> 100 µM	> 100 µM	–	–	> 100	–	> 100 µM	–	–	–	–	–	–	–	–
CN1CCN(c2nc(-c3csc(-c4cccs4)n3)cc3ccccc23)CC1	–	3.25 µM	3.39 µM	3.12 µM	4.56 µM	3.39 µM	3.68 µM	2.91 µM	3.1	–	1.66 µM	3.17 µM	–	1.75	1.84 µM	1.71	1.85 µM	1.82 µM	1.87 µM	1.36 µM
